{"source": "patent US20230117155A1", "about": "“FRACTION EXTRACT OF MELISSA OFFICINALIS LEAVES AND NOVEL PHARMACEUTICAL COMPOSITION INCLUDING SAME” (priority 2020, published 2023)", "note": "“Also recorded” adds a separate entry of the source."}
{"tested_on": "HUVECs (human umbilical vein endothelial cells)", "assay": "HUVEC tube formation, angiogenesis inhibitory activity assay", "assay_type": "cell-based", "details": "single ingredient, final concentration 50 μg/ml; FIG. 9", "method": "A 48-well plate was coated with 200 μl of 10% matrigel, and incubated at 4° C. After 4 hours the temperature was raised to 37° C., and 1 hour later, the test substances listed in Tables 2 and 3 below were added to a final concentration of 50 μg/ml, and then 5×10^4 HUVECs (human umbilical vein endothelial cells) were added to each well, and pictures were taken the next day."}
{"smiles": "CCOC(=O)Cc1ccc(O)c(O)c1", "note": "[EDPA, Ethyl 2-(3,4-dihydroxyphenyl) acetate]", "angiogenesis inhibitory activity in HUVEC tube formation assay": "angiogenesis inhibitory activities; also recorded: highest angiogenesis inhibitory activity"}
{"smiles": "COC(=O)[C@@H](Cc1ccc(O)c(O)c1)OC(=O)/C=C/c1ccc(O)c(O)c1", "note": "[RME, Rosmarinic acid methyl ester]", "angiogenesis inhibitory activity in HUVEC tube formation assay": "angiogenesis inhibitory activities"}
{"smiles": "O=C(/C=C/c1ccc(O)c(O)c1)O[C@H](Cc1ccc(O)c(O)c1)C(=O)O", "note": "[Rosmarinic acid]", "angiogenesis inhibitory activity in HUVEC tube formation assay": "angiogenesis inhibitory activities"}
{"smiles": "O=C(O)/C=C/c1ccc(O)c(O)c1", "note": "[caffeic acid]", "angiogenesis inhibitory activity in HUVEC tube formation assay": "angiogenesis inhibitory activities"}
